In US12421191B2, “3-hydroxyoxindole derivatives as CRHR2 antagonist” (RaQualia Pharma Inc., priority 2020, dated 2025):

biological target: T1, human CRHR2-alpha (Homo sapiens, UniProt Q13324); test: cAMP functional assay for human CRHR2 (LANCE Ultra TR-FRET); format: cell-based; settings: inhibition of cAMP production in CHO-K1 cells stably expressing human CRHR2-alpha, EC90 of human urocortin2 as agonist; read-out: IC50 against CRHR2
T1 construct: host or cells: CHO-K1
T1 sequence (Q13324 1-411): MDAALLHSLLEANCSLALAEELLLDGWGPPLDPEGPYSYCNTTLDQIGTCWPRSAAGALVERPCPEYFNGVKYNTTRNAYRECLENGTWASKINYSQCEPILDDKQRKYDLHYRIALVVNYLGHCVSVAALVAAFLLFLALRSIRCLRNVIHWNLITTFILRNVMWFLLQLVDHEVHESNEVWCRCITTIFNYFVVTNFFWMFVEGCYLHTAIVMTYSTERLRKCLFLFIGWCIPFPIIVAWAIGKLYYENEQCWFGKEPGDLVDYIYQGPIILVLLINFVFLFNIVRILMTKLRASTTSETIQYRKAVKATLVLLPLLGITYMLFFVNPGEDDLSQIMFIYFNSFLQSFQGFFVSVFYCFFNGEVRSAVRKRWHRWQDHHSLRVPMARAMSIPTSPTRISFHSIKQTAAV
Experimental: cAMP functional assay for human CRHR2 The ability of the compounds of this invention to inhibit either CRHR2 is assessed by 3′,5′-cyclic adenosine monophosphate (cAMP) production in cells using the LANCE Ultra cAMP assay kit (ParkinElmer), which are designed based on the homogeneous time-resolved fluorescence resonance energy transfer (TR-FRET) immunoassay.
CHO-K1 (Chinese hamster ovary) cells stably expressing human CRHR2-alpha (DiscoveRX, Cat. 95-0048C2) are grown in HAM's F12 media supplemented with 10% fetal bovine serum (FBS), 100 units/mL penicillin G, 100 microg/mL hygromycin and 0.5 microg/mL geneticin at 37° C. in 5% CO2 humidified incubator to 80% confluence. After 7 hours starvation treatment in culture media containing 0.1% FBS, the cells are washed with Hanks balanced salt solution (HBSS) and cryopreserved.
For cAMP assay, frozen cells are thawed and washed with HBSS, followed by resuspending cells in assay buffer (HBSS containing 0.1% bovine serum albumin, 0.5 mM isobutylmethylxanthine and 5 mM Hepes, pH 7.4) at the appropriate concentration for the assay. The cell suspensions are plated on 384-well microplates (Greiner Bio-One) at a density of 4,000 cells per well. After preincubating the cells with various concentrations of the compounds for 30 min at 25° C., an assay buffer containing EC90 concentration of agonist is added and the cells are incubated for 30 min at 25° C. Human urocortin2 (Peptide Institute) is used as agonists for CRHR2. For the termination of assay, europium-labeled cAMP tracer and ULight (registered trademark) dye labeled cAMP antibodies, both prepared with Lance-Ultra cAMP detection reagent (PerkinElmer) are added in the plate and incubate for 60 min at 25° C. After incubation, TR-FRET signal is detected by EnVision plate reader (PerkinElmer). The IC50 values for compounds are calculated from dose-response curves by fitting the percent inhibition using XLfit (ID Business Solutions).

SMILES | IC50 [nM]
O=C(N[C@H]1CC[C@H](CN2C(=O)C(O)(c3cccc(F)c3F)c3ccc(F)cc32)CC1)c1cc(Cl)cnc1C(F)F (some centres unmarked) [Example 116, 5-chloro-2-(difluoromethyl)-N-((1r,4r)-4-((3-(2,3-difluorophenyl)-6-fluoro-3-hydroxy-2-oxoindolin-1-yl)methyl)cyclohexyl) nicotinamide] | < 200
O=C(N[C@H]1CC[C@H](CN2C(=O)C(O)(c3cccc(F)c3)c3ccccc32)CC1)c1cc(Cl)cnc1C(F)F (some centres unmarked) [Example 20, 5-chloro-2-(difluoromethyl)-N-((1r,4r)-4-((3-(3-fluorophenyl)-3-hydroxy-2-oxoindolin-1-yl)methyl)cyclohexyl) nicotinamide] | < 200
COc1ccc(C2(O)C(=O)N(C[C@H]3CC[C@H](NC(=O)c4cc(Cl)cnc4C(F)F)CC3)c3ccccc32)cc1 (some centres unmarked) [Example 2, 5-chloro-2-(difluoromethyl)-N-((1r,4r)-4-((3-hydroxy-3-(4-methoxyphenyl)-2-oxoindolin-1-yl)methyl)cyclohexyl) nicotinamide] | < 200
O=C(N[C@H]1CC[C@H](CN2C(=O)C(O)(c3cccc(F)c3F)c3ccccc32)CC1)c1cc(Cl)cnc1C(F)(F)F (some centres unmarked) [Example 113, 5-chloro-N-((1r,4r)-4-((3-(2,3-difluorophenyl)-3-hydroxy-2-oxoindolin-1-yl)methyl)cyclohexyl)-2-(trifluoromethyl)nicotinamide] | < 200
O=C(N[C@H]1CC[C@H](CN2C(=O)C(O)(c3cccc(Cl)c3)c3ccccc32)CC1)c1cc(Cl)cnc1C(F)F (some centres unmarked) [Example 48, 5-chloro-N-((1r,4r)-4-((3-(3-chlorophenyl)-3-hydroxy-2-oxoindolin-1-yl)methyl)cyclohexyl)-2-(difluoromethyl)nicotinamide] | < 200
COc1cccc(C2(O)C(=O)N(C[C@H]3CC[C@H](NC(=O)c4cc(Cl)cnc4C(F)F)CC3)c3ccccc32)c1 (some centres unmarked) [Example 47, 5-chloro-2-(difluoromethyl)-N-((1r,4r)-4-((3-hydroxy-3-(3-methoxyphenyl)-2-oxoindolin-1-yl)methyl)cyclohexyl) nicotinamide] | < 200
O=C(N[C@H]1CC[C@H](CN2C(=O)C(O)(c3cc(F)cc(F)c3F)c3ccccc32)CC1)c1cc(Cl)cnc1C(F)F (some centres unmarked) [Example 133, 5-chloro-2-(difluoromethyl)-N-((1r,4r)-4-((3-hydroxy-2-oxo-3-(2,3,5-trifluorophenyl)indolin-1-yl)methyl)cyclohexyl) nicotinamide] | < 200
COc1cc(C2(O)C(=O)N(C[C@H]3CC[C@H](NC(=O)c4cc(Cl)cnc4C(F)F)CC3)c3cc(F)ccc32)c(F)cn1 (some centres unmarked) [Example 115, 5-chloro-2-(difluoromethyl)-N-((1r,4r)-4-((6-fluoro-3-(5-fluoro-2-methoxypyridin-4-yl)-3-hydroxy-2-oxoindolin-1-yl)methyl)cyclohexyl) nicotinamide] | < 200
O=C(N[C@H]1CC[C@H](CN2C(=O)C(O)(c3cccc(F)c3F)c3cc(F)ccc32)CC1)c1cc(Cl)cnc1C(F)F (some centres unmarked) [Example 123, 5-chloro-2-(difluoromethyl)-N-((1r,4r)-4-((3-(2,3-difluorophenyl)-5-fluoro-3-hydroxy-2-oxoindolin-1-yl)methyl)cyclohexyl) nicotinamide] | < 200
COc1ccc(C2(O)C(=O)N(C[C@H]3CC[C@H](NC(=O)c4cc(Cl)cnc4C(F)F)CC3)c3ccccc32)s1 (some centres unmarked) [Example 99, 5-chloro-2-(difluoromethyl)-N-((1r,4r)-4-((3-hydroxy-3-(5-methoxythiophen-2-yl)-2-oxoindolin-1-yl)methyl)cyclohexyl) nicotinamide] | < 200
Cc1ncc(Cl)cc1C(=O)N[C@H]1CC[C@H](CN2C(=O)C(O)(c3cccc(F)c3F)c3cc(F)ccc32)CC1 (some centres unmarked) [Example 162, 5-chloro-N-((1r,4r)-4-((3-(2,3-difluorophenyl)-5-fluoro-3-hydroxy-2-oxoindolin-1-yl)methyl)cyclohexyl)-2-methylnicotinamide] | < 200
O=C(N[C@H]1CC[C@H](CN2C(=O)C(O)(c3ccc(F)cc3)c3ccccc32)CC1)c1cc(Cl)cnc1C(F)F (some centres unmarked) [Example 17, 5-chloro-2-(difluoromethyl)-N-((1r,4r)-4-((3-(4-fluorophenyl)-3-hydroxy-2-oxoindolin-1-yl)methyl)cyclohexyl) nicotinamide] | < 200
O=C(N[C@H]1CC[C@H](CN2C(=O)C(O)(c3cc(F)ccc3F)c3ccc(F)cc32)CC1)c1cc(Cl)cnc1C(F)F (some centres unmarked) [Example 118, 5-chloro-2-(difluoromethyl)-N-((1r,4r)-4-((3-(2,5-difluorophenyl)-6-fluoro-3-hydroxy-2-oxoindolin-1-yl)methyl)cyclohexyl)nicotinamide] | < 200
Cc1cccc(C2(O)C(=O)N(C[C@H]3CC[C@H](NC(=O)c4cc(Cl)cnc4C(F)F)CC3)c3ccccc32)c1 (some centres unmarked) [Example 49, 5-chloro-2-(difluoromethyl)-N-((1r,4r)-4-((3-hydroxy-2-oxo-3-(m-tolyl)indolin-1-yl)methyl)cyclohexyl) nicotinamide] | < 200
COc1cc(C2(O)C(=O)N(C[C@H]3CC[C@H](NC(=O)c4cc(Cl)cnc4C(F)F)CC3)c3ccc(F)cc32)c(F)cn1 (some centres unmarked) [Example 124, 5-chloro-2-(difluoromethyl)-N-((1r,4r)-4-((5-fluoro-3-(5-fluoro-2-methoxypyridin-4-yl)-3-hydroxy-2-oxoindolin-1-yl)methyl)cyclohexyl) nicotinamide] | < 200
O=C(N[C@H]1CC[C@H](CN2C(=O)C(O)(c3cc(F)ccc3F)c3ccccc32)CC1)c1cc(Cl)cnc1C(F)F (some centres unmarked) [Example 58, 5-chloro-2-(difluoromethyl)-N-((1r,4r)-4-((3-(2,5-difluorophenyl)-3-hydroxy-2-oxoindolin-1-yl)methyl)cyclohexyl) nicotinamide] | < 200
O=C(N[C@H]1CC[C@H](CN2C(=O)C(O)(c3cccc(F)c3F)c3c(F)cccc32)CC1)c1cc(Cl)cnc1C(F)F (some centres unmarked) [Example 192, 5-chloro-2-(difluoromethyl)-N-((1r,4r)-4-((3-(2,3-difluorophenyl)-4-fluoro-3-hydroxy-2-oxoindolin-1-yl)methyl)cyclohexyl) nicotinamide] | < 200
O=C(N[C@H]1CC[C@H](CN2C(=O)C(O)(c3ccccc3)c3ccccc32)CC1)c1cc(Cl)cnc1C(F)F (some centres unmarked) [Example 3, 5-chloro-2-(difluoromethyl)-N-((1r,4r)-4-((3-hydroxy-2-oxo-3-phenylindolin-1-yl)methyl)cyclohexyl) nicotinamide] | < 200
O=C(N[C@H]1CC[C@H](CN2C(=O)C(O)(c3cccc(Cl)c3F)c3c(F)cccc32)CC1)c1cc(Cl)cnc1C(F)F (some centres unmarked) [Example 190, 5-chloro-N-((1r,4r)-4-((3-(3-chloro-2-fluorophenyl)-4-fluoro-3-hydroxy-2-oxoindolin-1-yl)methyl)cyclohexyl)-2-(difluoromethyl)nicotinamide] | < 200
Cc1ccc2c(c1)N(C[C@H]1CC[C@H](NC(=O)c3cc(Cl)cnc3C(F)F)CC1)C(=O)C2(O)c1ccncc1F (some centres unmarked) [Example 149, 5-chloro-2-(difluoromethyl)-N-((1r,4r)-4-((3-(3-fluoropyridin-4-yl)-3-hydroxy-6-methyl-2-oxoindolin-1-yl)methyl)cyclohexyl) nicotinamide] | < 200
Cc1ncc(Cl)cc1C(=O)N[C@H]1CC[C@H](CN2C(=O)C(O)(c3cccc(F)c3F)c3ccccc32)CC1 (some centres unmarked) [Example 173, 5-chloro-N-((1r,4r)-4-((3-(2,3-difluorophenyl)-3-hydroxy-2-oxoindolin-1-yl)methyl)cyclohexyl)-2-methylnicotinamide] | < 200
O=C(N[C@H]1CC[C@H](CN2C(=O)C(O)(c3ccccc3F)c3c(F)cc(F)cc32)CC1)c1cc(Cl)cnc1C(F)F (some centres unmarked) [Example 177, 5-chloro-N-((1r,4r)-4-((4,6-difluoro-3-(2-fluorophenyl)-3-hydroxy-2-oxoindolin-1-yl)methyl)cyclohexyl)-2-(difluoromethyl)nicotinamide] | < 200
O=C(N[C@H]1CC[C@H](CN2C(=O)C(O)(c3ccncc3F)c3ccc(F)cc32)CC1)c1cc(Cl)cnc1C(F)F (some centres unmarked) [Example 85, 5-chloro-2-(difluoromethyl)-N-((1r,4r)-4-((6-fluoro-3-(3-fluoropyridin-4-yl)-3-hydroxy-2-oxoindolin-1-yl)methyl)cyclohexyl) nicotinamide] | < 200
